Ends that are not written are not given here.
Key:
C. maenas DH31R [1] = target: T1, C. maenas DH31R (Carcinus maenas, UniProt A0A345BTT1); test: aequorin luminescence Ca2+ mobilization assay, CHO-K1-Aeq-Gα16 cells transiently expressing DH31R; type: cell-based; details: for luminescence response / activation of DH31R: DH31R-transfected CHO-K1-Aeq cells, tested up to micromolar levels; for EC50: read-out: EC50 of luminescence response
T1 sequence (A0A345BTT1 1-442): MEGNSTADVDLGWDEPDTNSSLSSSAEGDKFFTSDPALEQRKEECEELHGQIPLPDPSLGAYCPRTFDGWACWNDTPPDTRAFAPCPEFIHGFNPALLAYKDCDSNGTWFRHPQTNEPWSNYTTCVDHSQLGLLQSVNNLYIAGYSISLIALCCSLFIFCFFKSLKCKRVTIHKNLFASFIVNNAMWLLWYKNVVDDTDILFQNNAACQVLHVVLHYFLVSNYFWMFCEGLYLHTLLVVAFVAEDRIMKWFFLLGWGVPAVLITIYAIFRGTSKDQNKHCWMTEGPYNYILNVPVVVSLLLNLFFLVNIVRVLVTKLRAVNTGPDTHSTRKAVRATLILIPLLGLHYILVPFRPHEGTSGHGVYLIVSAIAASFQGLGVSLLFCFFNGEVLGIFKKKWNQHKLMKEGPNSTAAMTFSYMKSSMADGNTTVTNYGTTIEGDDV
Experimental: (§1) Cells were then diluted 10-fold prior to assay.
Amino acid sequences are shown in Supplementary Table S2. […] Receptor responses were normalized against total Ca^2+ luminescence.

C. maenas DH31R [2] = target: T1, C. maenas DH31R; test: cell-based
Experimental: as §1
Amino acid sequences are shown in Supplementary Table S2. […] Ca^2+ evoked luminescence was recorded for 40 s, followed by cell lysis (injection of 0.3% Triton-X 100 in BSA medium), and light emission recorded for a further 10 s. […] Receptor responses were normalized against total Ca^2+ luminescence.

[3] = CHO-K1-Aeq-Gα16 cells transiently expressing DH31R, simultaneously performed experiments with three DH31s (Figure 3 main panel), means of n = 4

| Substance | luminescence response / activation of DH31R (C. maenas DH31R [1]) | EC50 (C. maenas DH31R [1]; [3]) [nM] | other results |
| --- | --- | --- | --- |
| NSELINSLGLPKVMNDA-NH2 [C. maenas PDH-1, C. maenas pigment dispersing hormone-1 (Liverpool University)] | No luminescence responses |  | luminescence response / activation of DH31R (C. maenas DH31R [1]; listed as PDH-1): does not activate |
| MQRPQGPSLSVANPIEVLRSRLLLEIARRRMKEQDASRVSKNRQYLQQIG [R. prolixus CRF-like DH, Rhodnius prolixus corticotropin releasing factor-like diuretic hormone (I. Orchard, Toronto)] | No luminescence responses |  |  |
| GLDLGLSRGFSGSQAAKHLMGLAAANYAGGP-NH2 [Diploptera punctata DH31] |  | ~30 |  |
| GLDMGLGRGFSGSQAAKHLMGLAAANYAGGP-NH2 [C. maenas DH31] |  | ~30 | EC50 (C. maenas DH31R [1]; CHO-K1-Aeq-Gα16 cells transfected with DH31R, Figure 3 inset, independent set of transfections, means of N = 4): ~15 nM; EC50 (C. maenas DH31R [2]): ~15 nM |
| GLDLGLGRGFSGSQAAKHLMGLAAANFAGGP-NH2 [Tribolium castaneum DH31] |  | ~30 |  |

From paper PMC6039563, “Functional Identification and Characterization of the Diuretic Hormone 31 (DH31) Signaling System in the Green Shore Crab, Carcinus maenas” (Frontiers in Neuroscience, 2018)
